Test results as given in patent publication US6723897B2, “Methods for controlling gibberellin levels” (Monsanto Technology, LLC, priority 1998, dated 2004).

Experiments:
[1] = tested on: constitutively GA-deficient transgenic dwarf soybean line 719; experiment: Field trial of seed coating application rates, GA-deficient soybean; format: in vivo, Glycine max; settings: for 719 Height, cm, Heavy soil / 719 Height, cm, Light soil / No. 719 Emerged, Heavy soil / No. 719 Emerged, Light soil / No. 719 Not Rescued, Heavy soil / No. 719 Not Rescued, Light soil: seed coating
Procedure: (§1) GA3, GA3-3-acetate, GA5, GA9, and GA12 are evaluated in further field trials. […] The objectives of these tests are: 1) to determine if seed coatings, as compared to imbibition, of GA compounds facilitate rescue of constitutively GA-deficient transgenic dwarf soybeans (transgenic lines 719−2 plus 719+17) without causing elongation of wild-type soybeans (line A4922), and 2) to determine the seed treatment rate ranges for each of the selected GA compounds that would provide rescue of constitutively GA-deficient transgenic dwarf soybeans (transgenic lines 719−2 plus 719+17) without causing elongation of wild-type soybeans (line A4922).
(§2) Seeds are treated with GA3, GA5, GA9, GA12, and GA3-3-acetate at rates of 0, 0.1, 1, 10, and 100 μg/seed. These GA compounds are applied to the seeds using a Hege 11 seed treater (Hans-Ulrich Hege GmbH & Co., Waldenburg, Germany); 100% acetone is used as the carrier solvent. The amount of liquid introduced into the seed treater is six fluid ounces/100 lbs seed rate. In addition, GA12 is tested at 50 μg/seed. The untreated control (UTC) consisted of dry, untreated seeds. Seeds of constitutively GA-deficient transgenic dwarf soybean line 719 and wild-type A4922 are sown in both light and heavy soil. The planting depth is 0.5 to 1 inch (1.27 to 2.54 cm); watering is via drip irrigation. The experiment is carried out in three repetitions, using 25 seeds/plot (one five foot (152.4 cm) long row) for line 719, and 75 seeds/plot (two eight foot (243.8 cm) rows) for line A4922. Observations included total emergence, number of dwarfs not rescued, uniformity in plant height, average plant height, visual notes, and digital photos.
(§3) In all the experiments reported in Tables 17-24, treatments are replicated three times in a randomized block design. Data are analyzed using LSD (least significant difference) 0.05 probability using the PRM 5.0 Statistical Analysis Program (SAS Institute, North Carolina).

[2] = tested on: wild-type soybean line A4922; experiment: Field trial of seed coating application rates, wild-type soybean
Procedure: as §1, §2, §3

Row | SMILES | 719 Height, cm, Heavy soil ([1]; 0.1 μg compound per seed) | 719 Height, cm, Light soil ([1]; 0.1 μg compound per seed) | No. 719 Emerged, Heavy soil ([1]; 0.1 μg compound per seed) | No. 719 Emerged, Light soil ([1]; 0.1 μg compound per seed) [ab] | No. 719 Not Rescued, Heavy soil ([1]; 0.1 μg compound per seed) | No. 719 Not Rescued, Light soil ([1]; 0.1 μg compound per seed) | 719 Height, cm, Heavy soil ([1]; 1 μg compound per seed) | 719 Height, cm, Light soil ([1]; 1 μg compound per seed) [e cm] | No. 719 Emerged, Heavy soil ([1]; 1 μg compound per seed) [abc] | No. 719 Emerged, Light soil ([1]; 1 μg compound per seed) | No. 719 Not Rescued, Heavy soil ([1]; 1 μg compound per seed) | No. 719 Not Rescued, Light soil ([1]; 1 μg compound per seed) | 719 Height, cm, Heavy soil ([1]; 10 μg compound per seed) | 719 Height, cm, Light soil ([1]; 10 μg compound per seed) | No. 719 Emerged, Heavy soil ([1]; 10 μg compound per seed) | No. 719 Emerged, Light soil ([1]; 10 μg compound per seed) [a-d] | No. 719 Not Rescued, Heavy soil ([1]; 10 μg compound per seed) | No. 719 Not Rescued, Light soil ([1]; 10 μg compound per seed) | 719 Height, cm, Heavy soil ([1]; 100 μg compound per seed) [ab cm] | 719 Height, cm, Light soil ([1]; 100 μg compound per seed) [b cm] | further results
1 | C=C1C[C@]23C[C@@]1(O)CC[C@H]2[C@@]12C=C[C@H](OC(C)=O)[C@@](C)(C(=O)O1)[C@H]2[C@@H]3C(=O)O [GA3-3-acetate] | 3.3 e-i cm | 5.3 efg cm | 18.7 a-d | 21.0 | 0.3 ef | 0.7 | 6.0 cd cm | 6.3 | 21.3 | 21.7 ab | 0 f | 0.3 | 9.0 ab cm | 9.3 cm·days | 17.7 a-e | 20.3 | 0 f | 0 | 8.7 | 12.0 | No. 719 Emerged, Heavy soil ([1]; 100 μg compound per seed): 16.7 b-e; No. 719 Emerged, Light soil ([1]; 100 μg compound per seed): 17.7 b-f; No. 719 Not Rescued, Heavy soil ([1]; 100 μg compound per seed): 0 f; No. 719 Not Rescued, Light soil ([1]; 100 μg compound per seed): 0; preferred seed coating rate in this experiment ([1]; judged on lines 719 and A4922, light and heavy soil): about 1 μg per seed
2 | C=C1C[C@]23C[C@@]1(O)CC[C@H]2[C@@]12CC=C[C@@](C)(C(=O)O1)[C@H]2[C@@H]3C(=O)O [GA5] | 5.0 def cm | 4.3 fg·cm | 22.0 ab | 21.7 | 1.7 def | 4.3 c | 4.7 g·cm·days | 6.3 | 21.0 | 22.7 a | 0.7 ef | 0 | 7.3 bc cm | 11.3 bc cm | 20.0 a-d | 20.0 | 0.3 ef | 0.7 | 9.0 | 12.0 | No. 719 Emerged, Heavy soil ([1]; 100 μg compound per seed): 12.3 ef; No. 719 Emerged, Light soil ([1]; 100 μg compound per seed): 14.3 f; No. 719 Not Rescued, Heavy soil ([1]; 100 μg compound per seed): 0 f; No. 719 Not Rescued, Light soil ([1]; 100 μg compound per seed): 0; A4922 Height, cm, Heavy soil ([2]; 0.1 μg compound per seed): 4.3 ghi cm; A4922 Height, cm, Light soil ([2]; 0.1 μg compound per seed): 6.0 fgh cm; No. A4922 Emerged, Heavy soil ([2]; 0.1 μg compound per seed): 32.3 b-g; No. A4922 Emerged, Light soil ([2]; 0.1 μg compound per seed): 51.7 bcd; A4922 Height, cm, Heavy soil ([2]; 1 μg compound per seed): 7.0 ef cm; A4922 Height, cm, Light soil ([2]; 1 μg compound per seed): 7.3 fg·cm; No. A4922 Emerged, Heavy soil ([2]; 1 μg compound per seed): 37.3 b-f; No. A4922 Emerged, Light soil ([2]; 1 μg compound per seed): 47.3 c-g; A4922 Height, cm, Heavy soil ([2]; 10 μg compound per seed): 17.3 b cm; A4922 Height, cm, Light soil ([2]; 10 μg compound per seed): 16.3 c cm; No. A4922 Emerged, Heavy soil ([2]; 10 μg compound per seed): 32.7 b-g; No. A4922 Emerged, Light soil ([2]; 10 μg compound per seed): 45.7 c-h; A4922 Height, cm, Heavy soil ([2]; 100 μg compound per seed): 22.3 a cm; A4922 Height, cm, Light soil ([2]; 100 μg compound per seed): 29.7 a cm; No. A4922 Emerged, Heavy soil ([2]; 100 μg compound per seed): 38.3 b-e; No. A4922 Emerged, Light soil ([2]; 100 μg compound per seed): 46.7 c-g
